EC50 and minimal effective dose data for 3 molecules are collected here from patent publication US8716309B2, “Pharmaceutical composition comprising pyridone derivatives” (priority 2011, dated 2014).

Structures are written as SMILES.

For one assay, the target named is human α7 nAChR (Homo sapiens, UniProt P36544). Briefly: cell-based. The note with it: EC50 of human α7nAChR(nM), HEK293T/17 cells transfected with human α7 nAChR; PNU-120596 added; relative to epibatidine 1 μM positive control.
In the next assay the test system is Male ICR mice. Briefly: Novel Object Recognition Test (NORT), MK-801 induced amnesia. Format: in vivo. The note with it: Mus musculus; ip; dose at which the relative RI is given; doses 0.03˜3 mg/kg; read-out: NORT MED.

human α7 nAChR, sequence (P36544 23-502): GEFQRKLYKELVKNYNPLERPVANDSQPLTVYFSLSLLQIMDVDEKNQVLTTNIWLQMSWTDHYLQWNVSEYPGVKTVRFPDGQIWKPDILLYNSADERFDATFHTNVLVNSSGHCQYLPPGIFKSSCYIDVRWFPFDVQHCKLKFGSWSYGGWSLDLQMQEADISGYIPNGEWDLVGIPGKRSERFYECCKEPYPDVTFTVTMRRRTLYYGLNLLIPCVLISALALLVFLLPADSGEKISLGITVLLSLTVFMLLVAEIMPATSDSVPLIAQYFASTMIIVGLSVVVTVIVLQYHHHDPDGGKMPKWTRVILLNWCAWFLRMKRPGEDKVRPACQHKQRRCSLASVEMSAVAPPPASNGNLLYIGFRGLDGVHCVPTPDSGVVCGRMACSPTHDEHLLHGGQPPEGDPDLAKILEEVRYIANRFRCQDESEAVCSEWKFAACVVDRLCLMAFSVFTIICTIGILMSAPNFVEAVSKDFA

The molecule `O=C(N[C@H]1CN2CCC1CC2)c1ccc(=O)n(-c2ccc(Cl)cc2)c1` [Example 5, N-[(3R)-1-azabicyclo[2.2.2]octan-3-yl]-1-(4-chlorophenyl)-6-oxopyridine-3-carboxamide] showed an EC50 at human α7 nAChR greater than 1000 nM. Further, the minimal effective dose with Male ICR mice was 0.1 mg/kg.

Regarding `O=C(NC1CN2CCC1CC2)c1ccc(=O)n(-c2ccc(-c3ccccc3)cc2)c1` (stereo not drawn) [Example 65, N-(1-azabicyclo[2.2.2]octan-3-yl)-1-(4-phenylphenyl)-6-oxo-3-pyridinecarboxamide], the EC50 at human α7 nAChR fell in the range of 100 to 500 nM. Moreover, in the assay on Male ICR mice, the minimal effective dose was found to be 1 mg/kg.

For the molecule `CSc1ccccc1-n1cc(C(=O)NC2CN3CCC2CC3)ccc1=O` (stereo not drawn) [Example 77, N-(1-azabicyclo[2.2.2]octan-3-yl)-1-[2-(methylthio)phenyl]-6-oxo-3-pyridinecarboxamide], at human α7 nAChR, the EC50 is less than 100 nM. For the same molecule, the minimal effective dose in the assay with Male ICR mice is 0.1 mg/kg.
